Data published in ChEMBL document CHEMBL5543078, “Peptidomimetics as potent dual SARS-CoV-2 cathepsin-L and main protease inhibitors: In silico design, synthesis and pharmacological characterization” (Eur J Med Chem, 2024).
Calls of active or inactive are those of the source. The rule behind the calls is not given here. Non-standard residues stand in square brackets, D forms with d. Residues, ends and D or L forms follow the SMILES beside them. *: point of attachment. AllylGly = C=CC[C@H](N)C(=O)O; Acryloyl = C=CC(=O)*; NHBn = c1ccc(CN*)cc1; ClAc = O=C(CCl)*

How the values were obtained:
[1] = system: Human coronavirus OC43; type: functional, organism-based
[2] = system: Human coronavirus 229E; type: functional, organism-based
[3] = Cytotoxicity against African green monkey Vero cells assessed as change in cell morphology by measuring minimum cytotoxic concentration by microscopic analysis; type: toxicity, cell-based; details: chlorocebus sabaeus
[4] = system: SARS-CoV-2; assay: microbe, parasite or virus in culture; details: Severe acute respiratory syndrome coronavirus 2, NVDBB-2220 (Alpha), Vero
Description: Antiviral activity against SARS-CoV-2 NVDBB-2220 (Alpha) infected in African green monkey Vero cells assessed as reduction in virus-induced cytopathic effect incubated for 6 to 7 days by microscopic analysis

[5] = molecular target: Replicase polyprotein 1ab (Severe acute respiratory syndrome coronavirus 2, UniProt P0DTD1); assay: Inhibition of recombinant SARS-CoV-2 main protease using DABCYL-KTSAVLQSGFRKME-EDANS as fluorescent substrate preincubated for 30 mins followed by substrate addition by FRET assay
[6] = system: SARS-CoV-2; assay: microbe, parasite or virus in culture; details: Severe acute respiratory syndrome coronavirus 2, 860-J1 (Delta), Vero
Description: Antiviral activity against SARS-CoV-2 860-J1 (Delta) infected in African green monkey Vero cells assessed as reduction in virus-induced cytopathic effect incubated for 6 to 7 days by microscopic analysis

[7] = system: SARS-CoV-2; assay: microbe, parasite or virus in culture; details: Severe acute respiratory syndrome coronavirus 2, Wuhan/WIV04/2020, Vero
Description: Antiviral activity against SARS-CoV-2 Wuhan/WIV04/2020 infected in African green monkey Vero cells assessed as reduction in virus-induced cytopathic effect incubated for 6 to 7 days by microscopic analysis

[8] = system: SARS-CoV-2; assay: microbe, parasite or virus in culture; details: Severe acute respiratory syndrome coronavirus 2, Omicron B1.1.529, Vero
Description: Antiviral activity against SARS-CoV-2 Omicron B1.1.529 infected in African green monkey Vero cells assessed as reduction in virus-induced cytopathic effect incubated for 6 to 7 days by microscopic analysis

[9] = Metabolic stability in human liver microsomes assessed as intrinsic clearance incubated upto 60 mins in presence of NADPH by LC-MS analysis; type: ADME, Microsome; details: read-out: CLH
[10] = Stability in simulated gastric fluid assessed as parent compound remaining incubated upto 120 mins by LC-MS analysis; type: ADME; details: read-out: Stability
[11] = Stability in simulated intestinal fluid assessed as parent compound remaining incubated upto 120 mins by LC-MS analysis; type: ADME; details: read-out: Stability
[12] = Metabolic stability in human liver microsomes assessed as half life incubated upto 60 mins in presence of NADPH and UDPGA by LC-MS analysis; type: ADME, Microsome
[13] = Metabolic stability in human liver microsomes assessed as half life incubated upto 60 mins in presence of NADPH by LC-MS analysis; type: ADME, Microsome
[14] = Half life in human plasma at 10 uM measured upto 180 mins by LC-MS analysis; type: ADME, cell-free
[15] = molecular target: Procathepsin L (Homo sapiens, UniProt P07711); assay: Inhibition of Cathepsin L (unknown origin) using Z-Leu-Arg-AMC fluorometric dipeptide as substrate peincubated for 10 mins followed by substrate addition by fluorescence based assay
Sequence of Procathepsin L (P07711 whole entry): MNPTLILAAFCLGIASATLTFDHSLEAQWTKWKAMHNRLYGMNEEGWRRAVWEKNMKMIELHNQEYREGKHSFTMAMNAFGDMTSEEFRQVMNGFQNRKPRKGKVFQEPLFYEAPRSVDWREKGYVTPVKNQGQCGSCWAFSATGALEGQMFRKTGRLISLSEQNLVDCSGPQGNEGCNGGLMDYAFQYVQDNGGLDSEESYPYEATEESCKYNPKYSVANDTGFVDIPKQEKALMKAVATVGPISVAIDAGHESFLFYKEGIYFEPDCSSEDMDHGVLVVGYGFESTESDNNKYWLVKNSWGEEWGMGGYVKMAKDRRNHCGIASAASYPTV

Structure (SMILES): NC(=O)c1ncn([C@@H]2O[C@H](CO)[C@@H](O)[C@H]2O)n1
- Activity [1]: Active
- Activity [2]: Active

Structure (SMILES): CC(C)C[C@@H](C(=O)NCC12CC3CC(CC(C3)C1)C2)N(Cc1ccccc1)C(=O)CCl
- MCC [3]: 19 µM
- EC50 [4]: > 4 µM
- IC50 [5]: > 30 µM
- EC50 [6]: > 4 µM
- EC50 [7]: > 4 µM
- EC50 [8]: > 4 µM
- Activity [1]: Active
- Activity [2]: Active

Structure (SMILES): C=CC(=O)N[C@@H](CC(C)C)C(=O)N[C@@H](Cc1c[nH]c2ccccc12)C(=O)NCc1ccccc1
- MCC [3]: > 100 µM
- EC50 [4]: > 100 µM
- IC50 [5]: > 30 µM
- EC50 [6]: > 100 µM
- EC50 [7]: > 100 µM
- EC50 [8]: > 100 µM
- Activity [1]: Active
- Activity [2]: Active

Structure (SMILES): C=CC[C@H](NC(=O)CCl)C(=O)N[C@@H](Cc1c[nH]c2ccccc12)C(=O)NCc1ccccc1 (ClAc-[AllylGly]-Trp-NHBn)
- MCC [3]: > 100 µM
- EC50 [4]: 1.16 µM
- IC50 [5]: 1.72 µM
- EC50 [6]: 2.12 µM
- EC50 [7]: 0.49 µM
- EC50 [8]: 5.87 µM
- Activity [1]: Active
- Activity [2]: Active

Structure (SMILES): COC(=O)[C@H](CC(C)C)NC(=O)[C@H](Cc1c[nH]c2ccccc12)NC(=O)CCl (ClAc-Trp-Leu-OMe)
- MCC [3]: 21 µM
- EC50 [4]: > 20 µM
- IC50 [5]: > 30 µM
- EC50 [6]: > 20 µM
- EC50 [7]: > 4 µM
- EC50 [8]: > 4 µM
- Activity [1]: Active
- Activity [2]: Active

Structure (SMILES): CC(C)C[C@@H](NC(=O)CCl)C(=O)N[C@@H](Cc1c[nH]c2ccccc12)C(=O)NCc1ccccc1
- CLint scaled [9]: < 45 mL/min/kg
- MCC [3]: > 100 µM
- EC50 [4]: 0.57 µM
- IC50 [5]: > 30 µM
- remaining at 2 h [10]: > 80%
- EC50 [6]: 1.08 µM
- EC50 [7]: 0.08 µM
- remaining at 2 h [11]: > 80%
- half-life [12]: 75.3 min
- half-life [13]: 74.5 min
- EC50 [8]: 1.37 µM
- Activity [1]: Active
- half-life at 10 µM [14]: 232 min
- Activity [2]: Active

Structure (SMILES): O=C(CCl)NCC(=O)N[C@@H](Cc1c[nH]c2ccccc12)C(=O)NCc1ccccc1 (ClAc-Gly-Trp-NHBn)
- CLint scaled [9]: < 15 mL/min/kg
- MCC [3]: > 100 µM
- EC50 [4]: 0.3 µM
- IC50 [5]: > 30 µM
- remaining at 2 h [10]: > 80%
- EC50 [6]: 0.54 µM
- EC50 [7]: 0.16 µM
- remaining at 2 h [11]: > 80%
- half-life [12]: 122 min
- half-life [13]: 346 min
- EC50 [8]: 0.81 µM
- Activity [1]: Active
- Activity [2]: Active

Structure (SMILES): CC(C)C(=O)OC[C@H]1O[C@@H](n2ccc(NO)nc2=O)[C@H](O)[C@@H]1O [MOLNUPIRAVIR]
- MCC [3]: > 100 µM
- EC50 [4]: 5.44 µM
- EC50 [6]: 6.04 µM
- EC50 [7]: 4.31 µM
- EC50 [8]: 1.22 µM

Structure (SMILES): C=CC[C@H](NC(=O)CCl)C(=O)N[C@@H](CC=C)C(=O)N[C@H](CNCc1ccccc1)Cc1c[nH]c2ccccc12
- MCC [3]: > 100 µM
- EC50 [4]: 2.53 µM
- IC50 [5]: > 30 µM
- EC50 [6]: 18.1 µM
- EC50 [7]: 4.29 µM
- EC50 [8]: 15.2 µM
- Activity [1]: Active
- Activity [2]: Active

Structure (SMILES): CCOC(=O)[C@H]1O[C@@H]1C(=O)N[C@@H](CC(C)C)C(=O)NCCC(C)C [ALOXISTATIN]
- IC50 [15]: 0.034 µM
- Activity [1]: Active
- Activity [2]: Active

Structure (SMILES): CC(C)C[C@H](NC(=O)CCl)C(=O)N[C@@H](Cc1ccccc1)C(=O)N[C@@H](Cc1c[nH]c2ccccc12)C(=O)NCc1ccccc1 (ClAc-Leu-Phe-Trp-NHBn)
- MCC [3]: > 100 µM
- EC50 [4]: > 20 µM
- IC50 [5]: > 30 µM
- EC50 [6]: > 20 µM
- EC50 [7]: 4.81 µM
- EC50 [8]: > 100 µM
- Activity [1]: Active
- Activity [2]: Active

Structure (SMILES): O=C(CCl)N[C@@H](Cc1ccccc1)C(=O)N[C@@H](Cc1c[nH]c2ccccc12)C(=O)NCc1ccccc1 (ClAc-Phe-Trp-NHBn)
- CLint scaled [9]: > 45 mL/min/kg
- MCC [3]: > 100 µM
- EC50 [4]: 0.68 µM
- IC50 [5]: 0.73 µM
- remaining at 2 h [10]: > 80%
- EC50 [6]: 1.3 µM
- EC50 [7]: 0.09 µM
- remaining at 2 h [11]: > 80%
- half-life [12]: 19.6 min
- half-life [13]: 38.3 min
- EC50 [8]: 1.34 µM
- Activity [1]: Active
- Activity [2]: Active

Structure (SMILES): CCN(CC)CCCC(C)Nc1ccnc2cc(Cl)ccc12 (stereo not given)
- Activity [1]: Active
- Activity [2]: Active

Structure (SMILES): CC(C)C[C@H](NC(=O)CCl)C(=O)N[C@H](Cc1c[nH]c2ccccc12)C(=O)NCc1ccccc1
- MCC [3]: > 100 µM
- EC50 [4]: > 20 µM
- IC50 [5]: 14.6 µM
- EC50 [6]: > 20 µM
- EC50 [7]: 8.71 µM
- EC50 [8]: > 20 µM
- Activity [1]: Active
- Activity [2]: Active

Structure (SMILES): C=CC[C@H](NC(=O)CCl)C(=O)N[C@@H](Cc1c[nH]c2ccccc12)C(=O)NCCN1CCOCC1
- MCC [3]: > 100 µM
- EC50 [4]: 10.7 µM
- IC50 [5]: > 30 µM
- EC50 [6]: 29.2 µM
- EC50 [7]: 10.3 µM
- EC50 [8]: 13.5 µM
- Activity [1]: Active
- Activity [2]: Active

Structure (SMILES): COC(=O)[C@H](CCC(N)=O)NC(=O)[C@H](Cc1c[nH]c2ccccc12)NC(=O)[C@H](CC(C)C)NC(=O)CCl (ClAc-Leu-Trp-Gln-OMe)
- MCC [3]: > 100 µM
- EC50 [4]: > 100 µM
- IC50 [5]: > 30 µM
- EC50 [6]: > 100 µM
- EC50 [7]: > 100 µM
- EC50 [8]: > 100 µM
- Activity [1]: Active
- Activity [2]: Active

Structure (SMILES): O=C(CCl)N[C@@H](Cc1ccc(O)cc1)C(=O)N[C@@H](Cc1c[nH]c2ccccc12)C(=O)NCc1ccccc1 (ClAc-Tyr-Trp-NHBn)
- MCC [3]: > 100 µM
- EC50 [4]: 3.46 µM
- IC50 [5]: 8.35 µM
- EC50 [6]: 12.3 µM
- EC50 [7]: 2.37 µM
- EC50 [8]: 5.04 µM
- Activity [1]: inactive
- Activity [2]: inactive

Structure (SMILES): CCC(CC)COC(=O)[C@H](C)N[P@](=O)(OC[C@H]1O[C@@](C#N)(c2ccc3c(N)ncnn23)[C@H](O)[C@@H]1O)Oc1ccccc1 [REMDESIVIR]
- MCC [3]: > 40 µM
- EC50 [4]: 2.93 µM
- EC50 [6]: 3.74 µM
- EC50 [7]: 3.74 µM
- EC50 [8]: 0.83 µM
- Activity [1]: Active
- Activity [2]: Active

Structure (SMILES): CC(C)C[C@H](NC(=O)CCl)C(=O)N[C@@H](Cc1c[nH]c2ccccc12)C(=O)NCc1ccccc1
- CLint scaled [9]: > 45 mL/min/kg
- MCC [3]: > 100 µM
- EC50 [4]: 0.32 µM
- IC50 [5]: 2.81 µM
- remaining at 2 h [10]: > 80%
- EC50 [6]: 1.2 µM
- EC50 [7]: 0.27 µM
- remaining at 2 h [11]: > 80%
- half-life [12]: 21.1 min
- half-life [13]: 29.7 min
- EC50 [8]: 1.28 µM
- Activity [1]: Active
- Activity [2]: Active

Structure (SMILES): C=CC(=O)N[C@@H](Cc1ccccc1)C(=O)N[C@@H](Cc1c[nH]c2ccccc12)C(=O)NCc1ccccc1 (Acryloyl-Phe-Trp-NHBn)
- MCC [3]: > 100 µM
- EC50 [4]: > 20 µM
- IC50 [5]: > 30 µM
- EC50 [6]: > 20 µM
- IC50 [15]: > 30 µM
- EC50 [7]: > 20 µM
- EC50 [8]: > 20 µM
- Activity [1]: Active
- Activity [2]: Active

Structure (SMILES): CC(C)C[C@H](NC(=O)[C@H](Cc1c[nH]c2ccccc12)NC(=O)CCl)C(=O)NCc1ccccc1 (ClAc-Trp-Leu-NHBn)
- MCC [3]: 20 µM
- EC50 [4]: 0.41 µM
- IC50 [5]: 8.32 µM
- remaining at 2 h [10]: > 80%
- EC50 [6]: 1.25 µM
- EC50 [7]: 0.25 µM
- remaining at 2 h [11]: > 80%
- EC50 [8]: 0.4 µM
- Activity [1]: Active
- half-life at 10 µM [14]: 24.4 min
- Activity [2]: Active

Structure (SMILES): O=C(CS)N[C@@H](Cc1ccccc1)C(=O)N[C@@H](Cc1c[nH]c2ccccc12)C(=O)NCc1ccccc1
- MCC [3]: > 100 µM
- EC50 [4]: > 100 µM
- IC50 [5]: > 30 µM
- EC50 [6]: > 100 µM
- EC50 [7]: > 100 µM
- EC50 [8]: > 100 µM
- Activity [1]: Active
- Activity [2]: Active
